Source: patent US8252832B2, “Kinesin inhibitors as cancer therapeutics” (Novartis AG, priority 2007, dated 2012)
Where two headings read alike, the source gives them in different places.

Test system: panel of cell lines derived from hematological malignancies
Experiment: Cell survival assay, CellTiter-Glo readout after 48 hours, hematological panel
Assay type: cell-based
Set-up: key to Differential: panel average log(GI50) minus cell line log(GI50); positive = more sensitive
Description: Compound IIa was tested against a panel of cell lines derived from hematological malignancies in a cell survival assay using CellTiter-Glo® as a readout after 48 hours in the presence of compound. Table 18 lists the type of hematological malignancy, the name of the sample, its GI50 (concentration needed to achieve 50% growth inhibition) value in the assay, the logarithm of the GI50 (log(GI50), and the relative sensitivity of each sample (Differential). The differential is calculated by subtracting the log(GI50) for each cell line from the average log(GI50) across the entire panel (0.236 in this case); a positive value indicates a sample that is more sensitive than average, whereas a negative value indicates a sample that is less sensitive than average.

CC(C)(C)[C@H](c1nc(-c2cc(F)ccc2F)cn1Cc1ccccc1)N(CC[C@H](N)CF)C(=O)CO [Compound IIa]
GI50 (Homo sapiens, MM1.S, 48 h, MM1-S (MM), read-out: GI50): 0.24 nM
GI50 (Homo sapiens, MM1.S, 48 h, MM1-S (MM), read-out: Log(GI50) (converted)): 0.24 nM
GI50 (Homo sapiens, MOLT-3, 48 h, MOLT-3 (ALL), read-out: GI50): 0.34 nM
GI50 (Homo sapiens, MOLT-3, 48 h, MOLT-3 (ALL), read-out: Log(GI50) (converted)): 0.335 nM
GI50 (Homo sapiens, MOLT-4, 48 h, MOLT-4 (ALL), read-out: GI50): 0.33 nM
GI50 (Homo sapiens, MOLT-4, 48 h, MOLT-4 (ALL), read-out: Log(GI50) (converted)): 0.331 nM
GI50 (Homo sapiens, MV4-11, 48 h, MV4, 11 (AML), read-out: GI50): 0.08 nM
GI50 (Homo sapiens, MV4-11, 48 h, MV4, 11 (AML), read-out: Log(GI50) (converted)): 0.0769 nM
GI50 (Homo sapiens, NALM-6, 48 h, NALM-6 (ALL), read-out: GI50): 0.14 nM
GI50 (Homo sapiens, NALM-6, 48 h, NALM-6 (ALL), read-out: Log(GI50) (converted)): 0.135 nM
GI50 (Homo sapiens, NCI-H929, 48 h, H929 (MM), read-out: GI50): 0.34 nM
GI50 (Homo sapiens, NCI-H929, 48 h, H929 (MM), read-out: Log(GI50) (converted)): 0.335 nM
GI50 (Homo sapiens, OPM-2, 48 h, OPM2 (MM), read-out: GI50): 0.14 nM
GI50 (Homo sapiens, OPM-2, 48 h, OPM2 (MM), read-out: Log(GI50) (converted)): 0.135 nM
GI50 (Homo sapiens, RPMI-8226, 48 h, RPMI8226 (MM), read-out: GI50): 0.26 nM
GI50 (Homo sapiens, RPMI-8226, 48 h, RPMI8226 (MM), read-out: Log(GI50) (converted)): 0.262 nM
GI50 (Homo sapiens, RS4-11, 48 h, RS4, 11 (ALL), read-out: GI50): 0.1 nM
GI50 (Homo sapiens, RS4-11, 48 h, RS4, 11 (ALL), read-out: Log(GI50) (converted)): 0.1 nM
GI50 (Homo sapiens, Ramos, 48 h, Ramos (NHL), read-out: GI50): 0.16 nM
GI50 (Homo sapiens, Ramos, 48 h, Ramos (NHL), read-out: Log(GI50) (converted)): 0.16 nM
GI50 (Homo sapiens, SET-2, 48 h, SET-2 (AML), read-out: GI50): 0.34 nM
GI50 (Homo sapiens, SET-2, 48 h, SET-2 (AML), read-out: Log(GI50) (converted)): 0.34 nM
GI50 (Homo sapiens, SU-DHL-1, 48 h, SuDHL-1 (NHL), read-out: GI50): 10 nM
GI50 (Homo sapiens, SU-DHL-1, 48 h, SuDHL-1 (NHL), read-out: Log(GI50) (converted)): 10 nM
GI50 (Homo sapiens, SU-DHL-4, 48 h, SuDHL-4 (NHL), read-out: GI50): 0.45 nM
GI50 (Homo sapiens, SU-DHL-4, 48 h, SuDHL-4 (NHL), read-out: Log(GI50) (converted)): 0.447 nM
GI50 (Homo sapiens, SU-DHL-6, 48 h, SuDHL-6 (NHL), read-out: GI50): 0.16 nM
GI50 (Homo sapiens, SU-DHL-6, 48 h, SuDHL-6 (NHL), read-out: Log(GI50) (converted)): 0.16 nM
GI50 (Homo sapiens, SUP-B15, 48 h, SUP-B15 (ALL), read-out: GI50): 0.19 nM
GI50 (Homo sapiens, SUP-B15, 48 h, SUP-B15 (ALL), read-out: Log(GI50) (converted)): 0.19 nM
GI50 (Homo sapiens, SUP-T1, 48 h, SUP-T1 (NHL), read-out: GI50): 5.57 nM
GI50 (Homo sapiens, SUP-T1, 48 h, SUP-T1 (NHL), read-out: Log(GI50) (converted)): 5.57 nM
GI50 (Homo sapiens, U-937, 48 h, U937 (NHL), read-out: GI50): 0.2 nM
GI50 (Homo sapiens, U-937, 48 h, U937 (NHL), read-out: Log(GI50) (converted)): 0.2 nM
Differential (HuT78 (NHL)): 0.195
Differential (INA-6 (MM)): 0.555
GI50 (INA-6, 48 h, INA-6 (MM), read-out: GI50): 0.12 nM
GI50 (INA-6, 48 h, INA-6 (MM), read-out: Log(GI50) (converted)): 0.12 nM
Differential (K562 (CML)): 0.314
Differential (KM-H2 (HL)): 0.266
Differential (KMS11 (MM)): −0.050
Differential (KMS11-Luc (MM)): 0.172
Differential (KMS12 (MM)): 0.172
Differential (KMS18-Luc (MM)): −0.080
Differential (KMS26 (MM)): 0.254
GI50 (KMS-26, 48 h, KMS26 (MM), read-out: GI50): 0.24 nM
GI50 (KMS-26, 48 h, KMS26 (MM), read-out: Log(GI50) (converted)): 0.24 nM
Differential (Karpas-299 (NHL)): 0.333
Differential (Karpas-299-Luc (NHL)): −1.671
Differential (Karpas-422 (NHL)): −1.077
Differential (Kasumi-1 (AML)): −0.010
Differential (L363 (MM)): 0.520
Differential (L428 (HL)): −1.667
Differential (L-1236 (HL)): −0.930
GI50 (L-1236, 48 h, L-1236 (HL), read-out: GI50): 3.67 nM
GI50 (L-1236, 48 h, L-1236 (HL), read-out: Log(GI50) (converted)): 3.66 nM
Differential (LP1 (MM)): 0.322
Differential (MHH-CALL-2 (ALL)): 0.136
Differential (MHH-CALL-3 (ALL)): 0.333
Differential (MHH-CALL-4 (ALL)): −1.366
GI50 (MHHCALL4, 48 h, MHH-CALL-4 (ALL), read-out: GI50): 10 nM
GI50 (MHHCALL4, 48 h, MHH-CALL-4 (ALL), read-out: Log(GI50) (converted)): 10 nM
Differential (MM1-S (MM)): 0.254
Differential (MM1-S-Luc (MM)): 0.272
Differential (MOLM13-Luc (AML)): 0.279
Differential (MOLT-3 (ALL)): 0.109
Differential (MOLT-4 (ALL)): 0.114
Differential (MUTZ-5 (ALL)): −1.366
Differential (MV4, 11 (AML)): 0.747
Differential (MV4, 11Luc (AML)): 0.613
Differential (NALM-6 (ALL)): 0.504
Differential (NALM-19 (ALL)): 0.355
Differential (OPM2 (MM)): 0.504
Differential (REH (ALL)): 0.379
Differential (RL (NHL)): −1.667
Differential (RPMI8226 (MM)): 0.216
Differential (RS4, 11 (ALL)): 0.634
Differential (Ramos (NHL)): 0.430
Differential (SEM-Luc (ALL)): 0.458
Differential (SET-2 (AML)): 0.102
Differential (SR (NHL)): 0.591
Differential (SUP-B15 (ALL)): 0.355
Differential (SUP-M2 (NHL)): 0.379
GI50 (SUP-M2, 48 h, SUP-M2 (NHL), read-out: GI50): 0.18 nM
GI50 (SUP-M2, 48 h, SUP-M2 (NHL), read-out: Log(GI50) (converted)): 0.18 nM
Differential (SUP-T1 (NHL)): −1.112
Differential (SuDHL-1 (NHL)): −1.366
Differential (SuDHL-4 (NHL)): −0.016
Differential (SuDHL-6 (NHL)): 0.430
Differential (TANOUE (ALL)): −1.366
Differential (U937 (NHL)): 0.333
GI50 (UKE1, 48 h, UKE-1 (AML), read-out: GI50): 0.18 nM
GI50 (UKE1, 48 h, UKE-1 (AML), read-out: Log(GI50) (converted)): 0.175 nM
Differential (UKE-1 (AML)): 0.391
Differential (YT (ALL)): −1.366
